According to ChEMBL document CHEMBL3885861, “Open TG-GATES”:

Species on record: Rattus norvegicus
Test: Open TG-GATES - Regimen: Single
Format: toxicity, organism-based, Sprague-Dawley
Set-up: regimen Single, gender Male, age 6 weeks
Conditions: in vivo, po, 0 mg/kg, route gavage, dose level Control; for APTT / Bas / Eos / Fbg / Hb / Ht / Lym / MCH / MCHC / MCV / Mono / Neu / PT / Plat / RBC / Ret / WBC: tissue Blood; for KIDNEY_L / KIDNEY_R / KIDNEY_TOTAL: tissue Kidney; for LIVER: tissue Liver; for A/G / ALP / ALT / AST / BUN / CRE / Ca / Cl / DBIL / GLC / IP / K / LDH / Na / PL / RALB / TBIL / TC / TG / TP / gamma-GTP: tissue Plasma

O=C(O)c1ccccc1Nc1ccccc1 [FENAMIC ACID]
TERMINAL_BW (3 h): 209.2 g | APTT (3 h): 16.5 s | Bas (3 h): 0.4% | Eos (3 h): 1% | Fbg (3 h): 255.6 mg/dL | Hb (3 h): 13.1 g/dL | Ht (3 h): 39.6% | Lym (3 h): 73.4% | MCH (3 h): 20.8 pg | MCHC (3 h): 33% | MCV (3 h): 63.1 fL | Mono (3 h): 2% | Neu (3 h): 22.8% | PT (3 h): 14 s | Plat (3 h): 119.2 x10_4/uL | RBC (3 h): 627.8 x10_4/ul | Ret (3 h): 8.3% | WBC (3 h): 95.4 x10_2/uL | KIDNEY_L (3 h): 0.9 g | KIDNEY_R (3 h): 0.9 g | KIDNEY_TOTAL (3 h): 1.8 g | LIVER (3 h): 8.8 g | A/G (3 h): 0.9 | ALP (3 h): 1511 IU/L | ALT (3 h): 33.2 IU/L | AST (3 h): 75 IU/L | BUN (3 h): 9.2 mg/dL | CRE (3 h): 0.2 mg/dL | Ca (3 h): 10.9 mg/dL | Cl (3 h): 105.4 meq/L | DBIL (3 h): 0.008 mg/dL | GLC (3 h): 185.4 mg/dL | IP (3 h): 9 mg/dL | K (3 h): 4.2 meq/L | LDH (3 h): 75.4 IU/L | Na (3 h): 144 meq/L | PL (3 h): 132 mg/dL | RALB (3 h): 2.5 g/dL | TBIL (3 h): 0.05 mg/dL | TC (3 h): 69 mg/dL | TG (3 h): 77.6 mg/dL | TP (3 h): 5.4 g/dL | gamma-GTP (3 h): 1 IU/L | TERMINAL_BW (6 h): 204.2 g | APTT (6 h): 18.5 s | Bas (6 h): 0.4% | Eos (6 h): 0.8% | Fbg (6 h): 283.4 mg/dL | Hb (6 h): 13.2 g/dL | Ht (6 h): 39.8% | Lym (6 h): 76.4% | MCH (6 h): 20.7 pg | MCHC (6 h): 33.1% | MCV (6 h): 62.7 fL | Mono (6 h): 2.8% | Neu (6 h): 19.6% | PT (6 h): 13.9 s | Plat (6 h): 112.2 x10_4/uL | RBC (6 h): 634.4 x10_4/ul | Ret (6 h): 8.3% | WBC (6 h): 84.7 x10_2/uL | KIDNEY_L (6 h): 0.9 g | KIDNEY_R (6 h): 0.9 g | KIDNEY_TOTAL (6 h): 1.8 g | LIVER (6 h): 8.2 g | A/G (6 h): 0.9 | ALP (6 h): 1530.8 IU/L | ALT (6 h): 35 IU/L | AST (6 h): 77.4 IU/L | BUN (6 h): 7.8 mg/dL | CRE (6 h): 0.2 mg/dL | Ca (6 h): 11.1 mg/dL | Cl (6 h): 105 meq/L | DBIL (6 h): 0.004 mg/dL | GLC (6 h): 157.2 mg/dL | IP (6 h): 9.1 mg/dL | K (6 h): 4.1 meq/L | LDH (6 h): 79.6 IU/L | Na (6 h): 143 meq/L | PL (6 h): 136.8 mg/dL | RALB (6 h): 2.5 g/dL | TBIL (6 h): 0.054 mg/dL | TC (6 h): 75.6 mg/dL | TG (6 h): 56.2 mg/dL | TP (6 h): 5.4 g/dL | gamma-GTP (6 h): 1.2 IU/L | TERMINAL_BW (9 h): 204.4 g | APTT (9 h): 18.2 s | Bas (9 h): 0.6% | Eos (9 h): 1% | Fbg (9 h): 261.6 mg/dL | Hb (9 h): 13.3 g/dL | Ht (9 h): 40.4% | Lym (9 h): 75.4% | MCH (9 h): 20.5 pg | MCHC (9 h): 33.1% | MCV (9 h): 62.1 fL | Mono (9 h): 1.8% | Neu (9 h): 21.6% | PT (9 h): 14.3 s | Plat (9 h): 129.3 x10_4/uL | RBC (9 h): 650.4 x10_4/ul | Ret (9 h): 8.1% | WBC (9 h): 69 x10_2/uL | KIDNEY_L (9 h): 0.9 g | KIDNEY_R (9 h): 0.9 g | KIDNEY_TOTAL (9 h): 1.8 g | LIVER (9 h): 7.9 g | A/G (9 h): 0.9 | ALP (9 h): 1501.2 IU/L | ALT (9 h): 35 IU/L | AST (9 h): 77.6 IU/L | BUN (9 h): 9.2 mg/dL | CRE (9 h): 0.2 mg/dL | Ca (9 h): 10.8 mg/dL | Cl (9 h): 106 meq/L | DBIL (9 h): 0 mg/dL | GLC (9 h): 182.4 mg/dL | IP (9 h): 9.6 mg/dL | K (9 h): 3.9 meq/L | LDH (9 h): 70 IU/L | Na (9 h): 145 meq/L | PL (9 h): 130.6 mg/dL | RALB (9 h): 2.6 g/dL | TBIL (9 h): 0.05 mg/dL | TC (9 h): 72.8 mg/dL | TG (9 h): 39 mg/dL | TP (9 h): 5.5 g/dL | gamma-GTP (9 h): 1.2 IU/L | TERMINAL_BW (24 h): 218.8 g | APTT (24 h): 16.2 s | Bas (24 h): 0.8% | Eos (24 h): 1% | Fbg (24 h): 271 mg/dL | Hb (24 h): 13.5 g/dL | Ht (24 h): 40.9% | Lym (24 h): 80.6% | MCH (24 h): 20.9 pg | MCHC (24 h): 33% | MCV (24 h): 63.3 fL | Mono (24 h): 2% | Neu (24 h): 15.2% | PT (24 h): 14.4 s | Plat (24 h): 124.1 x10_4/uL | RBC (24 h): 646.8 x10_4/ul | Ret (24 h): 7% | WBC (24 h): 111.8 x10_2/uL | KIDNEY_L (24 h): 1 g | KIDNEY_R (24 h): 1 g | KIDNEY_TOTAL (24 h): 1.9 g | LIVER (24 h): 9.7 g | A/G (24 h): 0.9 | ALP (24 h): 1870.8 IU/L | ALT (24 h): 44.4 IU/L | AST (24 h): 73.8 IU/L | BUN (24 h): 13.4 mg/dL | CRE (24 h): 0.2 mg/dL | Ca (24 h): 11.2 mg/dL | Cl (24 h): 105.2 meq/L | DBIL (24 h): 0.008 mg/dL | GLC (24 h): 177.2 mg/dL | IP (24 h): 7.8 mg/dL | K (24 h): 4.2 meq/L | LDH (24 h): 85.4 IU/L | Na (24 h): 142.6 meq/L | PL (24 h): 148.4 mg/dL
